These results are taken from patent publication US12655101B2, “Small molecules with antibacterial activity” (NEW MEXICO TECH UNIVERSITY RESEARCH PARK CORPORATION, priority 2021, dated 2026).

In brackets after ≈: the same amount, converted by molar mass. Like-named read-outs stand apart in the source and are kept apart here.

Assay [1] concerns A. baumannii ATCC BAA-1797. The experiment in a line: MIC on A. baumannii ATCC BAA-1797. The class given is cell-based. Particulars: Acinetobacter baumannii. The protocol:
A. baumannii: A. baumannii ATCC BAA-1797 was grown from a glycerol stock by placing a small volume of cells onto a MHA plate. The MHA plate was incubated overnight at 37° C. A single colony was used to inoculate MHB to obtain a bacterial broth suspension. The MHB broth suspension was grown at 37° C. on a rotary shaking incubator (100 rpm) for 12 hours. The bacterial cell concentration was adjusted to ˜5×10^5 CFU/mL in MHB or MHB+10%, 20% or 40% FBS using OD at 595 nm. 500 μL aliquots of the adjusted bacterial cell suspension were placed into borosilicate glass tubes. The cell suspensions were treated with a compound of interest, and the treatments were serially diluted two-fold. The culture tubes were incubated for 18 hours at 37° C. Efficacy was either assessed visually or by adding 10% v/v MTT (5 mg/mL stock) after the 18 hour incubation period. The cell suspensions were subsequently incubated for 10 minutes to allow the MTT reagent to carry out the colorimetric reaction. The OD was read at 595 nm.

In a further assay the test system is MRSA ATCC BAA-44. The assay can be described thus: MIC on MRSA ATCC BAA-44. The class given is cell-based, S. aureus. Particulars: Staphylococcus aureus. The protocol:
MRSA BAA-44: MRSA ATCC BAA-44 was grown from a glycerol stock by placing a small volume of cells onto a Mueller-Hinton agar plate (MHA). The MHA plate was incubated overnight at 37° C. A single colony was used to inoculate Mueller-Hinton broth (MHB) to obtain a bacterial broth suspension. The MHB broth suspension was grown at 37° C. on a rotary shaking incubator (100 rpm) for 12 hours. The bacterial cell concentration was adjusted to ˜5×10^5 colony forming units per milliliter (CFU/mL) in MHB−/+10, 20, or 40% FBS using optical density (OD) at 595 nm. 500 μL aliquots of the adjusted bacterial cell suspension were placed into borosilicate glass tubes. The cell suspensions were treated with 100 μM compound of interest and serially diluted two-fold. The culture tubes were incubated for 18 hours at 37° C. Efficacy was either assessed visually or by adding 10% v/v MTT (5 mg/mL stock) after the 18 hour incubation period, where the cell suspensions were subsequently incubated for 10 minutes to allow the MTT reagent to carry out the colorimetric reaction.

[2] abbreviates: ATCC 1797 / ATCC BAA-1797, 0% FBS, read-out: MIC (μM) in MDR A. baumannii ATCC 1797 0% FBS.
[3] abbreviates: 10% FBS, read-out: MIC (μM) in MRSA BAA-44 10% FBS.
Where [4] appears, read: ATCC 1797 / ATCC BAA-1797, 10% FBS, read-out: MIC (μM) in MDR A. baumannii ATCC 1797 10% FBS.
Where [5] appears, read: ATCC 1797 / ATCC BAA-1797, read-out: MIC (μM) in MDR A. baumannii ATCC 1797 40% FBS, 40% FBS.
Where [6] appears, read: no serum (note in the cell), read-out: MIC (μM) in MRSA BAA-44.
The mark [7] stands for this setting: in FBS (note in the cell, percentage not given), read-out: MIC (μM) in MRSA BAA-44.

Usually MIC stands for the lowest concentration that inhibits growth of the organism. As for `Brc1ccc(/N=N/c2c[nH]c3cccc(Nn4nnc5ccccc54)c23)cc1` [Compound 1, (E)-N-(3-((4-bromophenyl)diazenyl)-1H-indol-4-yl)-1H-benzo[d][1,2,3]triazol-1-amine], the MIC in assay [1] (setting [2]) was found to be 50 µM (≈ 21.6 µg/mL).
Regarding `Cn1cc(/N=N/c2ccc(Br)cc2)c2c([N+](C)(C)C)cccc21` [Compound 2, (E)-3-((4-bromophenyl)diazenyl)-N,N,N,1-tetramethyl-1H-indol-4-aminium iodide], the MIC (in the assay with MRSA ATCC BAA-44 (setting [3]); in assay [1] (setting [2])) was greater than 100 µM throughout.
Turning to `O=[N+]([O-])c1ccc2[nH]cc(/N=N/c3ccc(Br)cc3)c2c1` [Compound 3, (E)-3-((4-bromophenyl)diazenyl)-5-nitro-1H-indole], the MIC in assay [1] (setting [2]) and in assay [1] (setting [4]) was greater than 100 µM in each case.
In the case of `NC(=O)CC(N)C(=O)Nc1cccc2[nH]cc(/N=N/c3ccc(Br)cc3)c12` (stereo not drawn) [Compound 5, (E)-2-amino-N^1-(3-((4-bromophenyl)diazenyl)-1H-indol-4-yl)succinamide], the MIC in assay [1] (setting [2]) and in assay [1] (setting [4]) was greater than 100 µM throughout.
On to `N=C(N)NCCC(N)C(=O)Nc1cccc2[nH]cc(/N=N/c3ccc(Br)cc3)c12` (stereo not drawn) [Compound 6, (E)-2-amino-N-(3-((4-bromophenyl)diazenyl)-1H-indol-4-yl)-4-guanidinobutanamide], for which the MIC with MRSA ATCC BAA-44 (setting [3]) is 25 µM (≈ 11.4 µg/mL); in assay [1] (setting [2]), 25 µM (≈ 11.4 µg/mL); in assay [1] (setting [4]), greater than 100 µM; in assay [1] (setting [5]) it was 100 µM (≈ 45.7 µg/mL).
Take `Clc1ccc(N/N=C/c2c[nH]c3ccccc23)cc1` [Compound 7, (E)-3-((2-(4-chlorophenyl)hydrazineylidene)methyl)-1H-indole]: the MIC turned out to be 100 µM (≈ 27 µg/mL) with MRSA ATCC BAA-44 (read-out: MIC (μM) in MRSA BAA-44 10% FBS); 5 µM (≈ 1.35 µg/mL) in assay [1] (ATCC 1797 / ATCC BAA-1797, read-out: MIC (μM) in MDR A. baumannii ATCC 1797 0% FBS); 25 µM (≈ 6.74 µg/mL) in assay [1] (ATCC 1797 / ATCC BAA-1797, read-out: MIC (μM) in MDR A. baumannii ATCC 1797 10% FBS); 50 µM (≈ 13.5 µg/mL) in assay [1] (ATCC 1797 / ATCC BAA-1797, read-out: MIC (μM) in MDR A. baumannii ATCC 1797 40% FBS).
Turning to `C(=N\Nc1ccccc1)/c1c[nH]c2ccccc12` [Compound 8, (E)-3-((2-phenylhydrazineylidene)methyl)-1H-indole], the MIC in the assay on MRSA ATCC BAA-44 (setting [3]) is greater than 100 µM; in assay [1] (setting [2]) it was 40 µM (≈ 9.41 µg/mL); in assay [1] (setting [4]), greater than 100 µM; in assay [1] (setting [5]) it was 50 µM (≈ 11.8 µg/mL).
In the case of `O=[N+]([O-])c1ccc(N/N=C/c2c[nH]c3ccccc23)cc1` [Compound 9, (E)-3-((2-(4-nitrophenyl)hydrazineylidene)methyl)-1H-indole], the MIC in assay [1] (setting [2]) is greater than 100 µM.
In the case of `O=C(O)c1ccc(N/N=C/c2c[nH]c3ccccc23)cc1` [Compound 10, (E)-4-(2-((1H-indol-3-yl)methylene)hydrazineyl) benzoic acid], the MIC in the assay with MRSA ATCC BAA-44 (setting [6]) was 100 µM (≈ 27.9 µg/mL); in assay [1] (setting [2]), greater than 100 µM.
Regarding `N#CCC(=O)N/N=C/c1c[nH]c2ccccc12` [Compound 11, (E)-N′-((1H-indol-3-yl)methylene)-2-cyanoacetohydrazide], the MIC (in the assay with MRSA ATCC BAA-44 (setting [3]); in assay [1] (setting [2]); in assay [1] (setting [4]); in assay [1] (setting [5])) was greater than 100 µM throughout.
Regarding `Clc1ccccc1N/N=C/c1c[nH]c2ccccc12` [Compound 12, (E)-3-((2-(2-chlorophenyl)hydrazineylidene)methyl)-1H-indole], the minimal inhibitory concentration (MIC) in the assay with MRSA ATCC BAA-44 (setting [6]) is 25 µM (≈ 6.74 µg/mL); in assay [1] (setting [2]), 12.5 µM (≈ 3.37 µg/mL); in assay [1] (setting [4]) it was greater than 100 µM; in assay [1] (setting [5]) it was greater than 100 µM.
In the case of `Oc1cccc2[nH]cc(/C=N/Nc3ccccc3)c12` [Compound 13, (E)-3-((2-phenylhydrazineylidene)methyl)-1H-indol-4-ol], the MIC with MRSA ATCC BAA-44 (setting [3]) is 100 µM (≈ 25.1 µg/mL); in assay [1] (setting [2]) it was 5 µM (≈ 1.26 µg/mL); in assay [1] (setting [4]), 100 µM (≈ 25.1 µg/mL); in assay [1] (setting [5]), greater than 100 µM.
Turning to `N=C(N)NCCC[C@H](N)C(=O)Oc1cccc2[nH]cc(/C=N/Nc3ccc(Cl)cc3)c12` [Compound 16, (E)-3-((2-(4-chlorophenyl)hydrazineylidene)methyl)-1H-indol-4-yl argininate], the MIC with MRSA ATCC BAA-44 (setting [3]) was greater than 100 µM; in assay [1] (setting [2]), 3 µM (≈ 1.33 µg/mL); in assay [1] (setting [4]), greater than 100 µM; in assay [1] (setting [5]), greater than 100 µM.
For the molecule `CC(C)(C)OC(=O)N[C@@H](CCCNC(=N)N)C(=O)Oc1cccc2[nH]cc(/C=N/Nc3ccc(Cl)cc3)c12` [Compound 17, (E)-3-((2-(4-chlorophenyl)hydrazineylidene)methyl)-1H-indol-4-yl (tert-butoxycarbonyl) argininate], the minimum inhibitory concentration (MIC) (with MRSA ATCC BAA-44 (setting [3]); in assay [1] (setting [2]); in assay [1] (setting [4]); in assay [1] (setting [5])) was greater than 100 µM in each case.
With `CC(C)(C)OC(=O)Nc1cccc2[nH]cc(/C=N/Nc3ccc(Cl)cc3)c12` [Compound 18], the MIC in the assay with MRSA ATCC BAA-44 (MRSA ATCC BAA-44, serum not stated, read-out: MIC) is 12.5 µM (≈ 4.81 µg/mL); in the assay with MRSA ATCC BAA-44 (setting [6]), 12.5 µM (≈ 4.81 µg/mL); in assay [1] (setting [2]), 3 µM (≈ 1.15 µg/mL); in assay [1] (setting [5]), greater than 100 µM; in assay [1] (ATCCBAA1797, 18 h, read-out: MIC in the presence of 40% FBS, A. baumannii ATCC BAA-1797, 40% FBS), greater than 100 µM; in assay [1] (ATCCBAA1797, A. baumannii ATCC BAA-1797, absence of serum, read-out: MIC in the absence of serum), 3 µM (≈ 1.15 µg/mL).
Regarding `C(=N\Nc1ncccn1)/c1c[nH]c2ccccc12` [Compound 19, (E)-3-((2-(pyrimidin-2-yl)hydrazineylidene)methyl)-1H-indole], the MIC (with MRSA ATCC BAA-44 (setting [3]); in assay [1] (setting [2]); in assay [1] (setting [5])) was greater than 100 µM in each case.
On to `Oc1cccc2[nH]cc(/C=N/Nc3ccc(Br)cc3)c12` [Compound 20, (E)-3-((2-(4-bromophenyl)hydrazineylidene)methyl)-1H-indol-4-ol], for which the MIC in the assay on MRSA ATCC BAA-44 (setting [7]) is greater than 100 µM; in the assay on MRSA ATCC BAA-44 (setting [6]) it was 25 µM (≈ 8.25 µg/mL); in assay [1] (setting [2]), 25 µM (≈ 8.25 µg/mL); in assay [1] (setting [5]), greater than 100 µM.
Take `Oc1cccc2[nH]cc(/C=N/Nc3ccc(F)cc3)c12` [Compound 21, (E)-3-((2-(4-fluorophenyl)hydrazineylidene)methyl)-1H-indol-4-ol]: the MIC was greater than 100 µM in the assay on MRSA ATCC BAA-44 (setting [7]), 25 µM (≈ 6.73 µg/mL) in the assay with MRSA ATCC BAA-44 (setting [6]), 25 µM (≈ 6.73 µg/mL) in assay [1] (setting [2]) and greater than 100 µM in assay [1] (setting [5]).
As for `CCCCCC(=O)Oc1cccc2[nH]cc(/C=N/Nc3ccc(Br)cc3)c12` [Compound 22, (E)-3-((2-(4-bromophenyl)hydrazineylidene)methyl)-1H-indol-4-yl hexanoate], the MIC in the assay on MRSA ATCC BAA-44 (setting [7]) was greater than 100 µM; in the assay on MRSA ATCC BAA-44 (setting [6]), 25 µM (≈ 10.7 µg/mL); in assay [1] (setting [2]) it was 25 µM (≈ 10.7 µg/mL); in assay [1] (setting [5]) it was greater than 100 µM.
As for `Brc1ccc(N/N=C/c2c[nH]c3ccc(Br)cc23)cc1` [Compound 23, (E)-1-((5-bromo-1H-indol-3-yl)methylene)-2-(4-bromophenyl)hydrazin-1-ium chloride], the MIC was 12.5 µM in assay [1] (setting [2]) and less than 100 µM in assay [1] (ATCC 1797 / ATCC BAA-1797, in human serum (note in the cell of the 40% FBS column), read-out: MIC (μM) in MDR A. baumannii ATCC 1797).
For the molecule `CC(=O)n1cc(/C=N/Nc2ccc(Cl)cc2)c2ccccc21` [Compound 24, (E)-1-(3-((2-(4-chlorophenyl)hydrazineylidene)methyl)-1H-indol-1-yl)ethan-1-one], the values for the MIC in assay [1] (setting [2]) and in assay [1] (setting [5]) were less than 100 µM and greater than 100 µM, respectively.
In the same order, the values of `N#Cc1ccc(N/N=C/c2c[nH]c3cccc(OCc4ccccc4)c23)cc1` [Compound 28] are 25 µM (≈ 9.16 µg/mL) and 100 µM (≈ 36.6 µg/mL).
In the same order, the values of `O=S(=O)(N/N=C/c1c[nH]c2cccc(OCc3ccccc3)c12)c1ccccc1` [Compound 29, (E)-N′-((4-(benzloxy)-1H-indol-3-yl)methylene)benzenesulfonohydrazide] are greater than 100 µM and greater than 100 µM.
As for `Clc1ccc(N/N=C/c2c[nH]c3cccc(OCc4ccccc4)c23)c(Cl)c1` [Compound 32, (E)-4-(benzyloxy)-3-((2-(2,4-dichlorophenyl)hydrazineylidene)methyl)-1H-indole], the MIC in assay [1] (setting [2]) is greater than 100 µM.
